Experiments:
human TLR7 = molecular target: T1, human TLR7 (Homo sapiens, UniProt Q9NYK1); experiment: TLR7 inhibition reporter assay (HEK-Blue SEAP); assay type: cell-based; details: HEK-Blue cells overexpressing human TLR7, gardiquimod 7.5 μM, 22 hour incubation
T1 construct: host or cells: HEK-Blue cells
T1 sequence (Q9NYK1 27-1049): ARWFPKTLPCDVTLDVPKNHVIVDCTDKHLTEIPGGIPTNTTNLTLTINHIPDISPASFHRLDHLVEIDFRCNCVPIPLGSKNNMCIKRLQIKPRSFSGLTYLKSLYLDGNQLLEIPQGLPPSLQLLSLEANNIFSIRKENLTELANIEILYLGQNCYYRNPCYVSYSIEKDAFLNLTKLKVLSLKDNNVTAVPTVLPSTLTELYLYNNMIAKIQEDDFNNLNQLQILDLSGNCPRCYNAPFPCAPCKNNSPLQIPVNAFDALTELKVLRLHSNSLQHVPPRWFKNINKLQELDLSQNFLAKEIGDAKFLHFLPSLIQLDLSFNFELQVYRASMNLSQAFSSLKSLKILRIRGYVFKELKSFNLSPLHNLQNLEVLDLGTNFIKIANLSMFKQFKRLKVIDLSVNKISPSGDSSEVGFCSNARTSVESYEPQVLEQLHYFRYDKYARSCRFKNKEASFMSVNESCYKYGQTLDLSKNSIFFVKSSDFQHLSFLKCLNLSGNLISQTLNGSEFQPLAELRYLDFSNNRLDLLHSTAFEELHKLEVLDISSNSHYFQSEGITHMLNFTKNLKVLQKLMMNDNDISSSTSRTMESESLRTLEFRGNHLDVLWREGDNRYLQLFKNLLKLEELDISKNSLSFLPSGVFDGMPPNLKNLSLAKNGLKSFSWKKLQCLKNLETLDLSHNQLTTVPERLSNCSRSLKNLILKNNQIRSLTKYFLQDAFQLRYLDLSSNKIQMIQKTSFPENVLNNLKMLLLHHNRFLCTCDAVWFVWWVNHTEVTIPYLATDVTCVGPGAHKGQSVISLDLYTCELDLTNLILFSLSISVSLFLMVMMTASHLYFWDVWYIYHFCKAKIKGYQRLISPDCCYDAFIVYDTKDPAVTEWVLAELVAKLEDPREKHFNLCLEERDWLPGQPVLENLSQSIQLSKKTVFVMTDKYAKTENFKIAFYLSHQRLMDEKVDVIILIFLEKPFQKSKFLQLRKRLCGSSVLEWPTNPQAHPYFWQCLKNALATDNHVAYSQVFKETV
Summary of the method: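 SEAP readout via HEK-Blue Detection medium after 22 h at 37 °C, 5% CO2 defines inhibition, normalized between agonist-plus-DMSO wells and a reference inhibitor. Compound dose range 0.05 nM–50 μM; TLR7 cells at 15,000/well (gardiquimod), TLR8 at 20,000/well (R848).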

human TLR9 = molecular target: T2, human TLR9 (Homo sapiens, UniProt Q9NR96); experiment: TLR9 inhibition reporter assay (HEK-Blue SEAP); assay type: cell-based; details: HEK-Blue cells overexpressing human TLR9, ODN2006 5 nM, 22 hour incubation
T2 construct: host or cells: HEK-Blue cells
T2 sequence (Q9NR96 26-1032): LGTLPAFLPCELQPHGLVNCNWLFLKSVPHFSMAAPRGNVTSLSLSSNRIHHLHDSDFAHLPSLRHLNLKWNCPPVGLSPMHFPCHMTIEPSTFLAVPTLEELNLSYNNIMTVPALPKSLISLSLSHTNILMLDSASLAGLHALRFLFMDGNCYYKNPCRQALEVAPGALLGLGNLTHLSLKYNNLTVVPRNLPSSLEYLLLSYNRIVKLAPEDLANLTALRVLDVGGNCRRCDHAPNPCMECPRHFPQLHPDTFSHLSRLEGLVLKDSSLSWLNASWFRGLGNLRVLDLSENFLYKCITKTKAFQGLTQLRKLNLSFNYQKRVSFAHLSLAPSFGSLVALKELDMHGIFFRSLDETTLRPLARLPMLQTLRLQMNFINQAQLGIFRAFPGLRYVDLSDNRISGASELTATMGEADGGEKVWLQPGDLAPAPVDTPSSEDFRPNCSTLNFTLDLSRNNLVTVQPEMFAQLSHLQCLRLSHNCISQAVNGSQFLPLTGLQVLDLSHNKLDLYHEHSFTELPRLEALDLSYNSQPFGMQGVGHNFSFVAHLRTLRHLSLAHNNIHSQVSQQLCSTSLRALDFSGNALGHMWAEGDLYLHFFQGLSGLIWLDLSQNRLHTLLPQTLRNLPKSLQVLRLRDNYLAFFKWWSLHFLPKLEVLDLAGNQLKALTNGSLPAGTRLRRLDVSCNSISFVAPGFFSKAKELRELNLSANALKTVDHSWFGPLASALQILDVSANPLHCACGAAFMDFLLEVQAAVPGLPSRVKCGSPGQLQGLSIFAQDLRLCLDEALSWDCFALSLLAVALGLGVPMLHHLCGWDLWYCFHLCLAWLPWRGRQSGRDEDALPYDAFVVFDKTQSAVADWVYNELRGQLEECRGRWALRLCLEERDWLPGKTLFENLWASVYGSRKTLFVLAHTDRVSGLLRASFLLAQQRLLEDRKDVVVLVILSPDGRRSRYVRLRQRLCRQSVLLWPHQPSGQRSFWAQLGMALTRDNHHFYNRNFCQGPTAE
Summary of the method: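 HEK-Blue cells overexpressing human TLR7, TLR8 or TLR9 carry a SEAP reporter driven by NF-κB/AP-1 sites. Compounds (0.05 nM–50 μM) were preincubated 30 min at room temperature, then cells were stimulated with gardiquimod 7.5 μM (TLR7), R848 15.9 μM (TLR8) or ODN2006 5 nM (TLR9) for 22 h at 37 °C.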

Structure (SMILES)	IC50 (human TLR7) [nM]	IC50 (human TLR9) [µM]
Cc1c(-c2cc3[nH]c(=O)n([C@@H]4CCCN(C5COC5)C4)c3cc2C(C)C)cn2ncnc2c1C [Example 146, (R)-5-(7,8-dimethyl-[1,2,4]triazolo[1,5-a]pyridin-6-yl)-6-isopropyl-1-(1-(oxetan-3-yl)piperidin-3-yl)-1,3-dihydro-2H-benzo[d]imidazol-2-one]	182	> 50
Cc1c(-c2cc3[nH]c(=O)n([C@@H]4CCCN(C)C4)c3cc2C(C)C)cn2ncnc2c1C [Example 147, (R)-5-(7,8-dimethyl-[1,2,4]triazolo[1,5-a]pyridin-6-yl)-6-isopropyl-1-(1-methylpiperidin-3-yl)-1,3-dihydro-2H-benzo[d]imidazol-2-one]	66.9	> 50
CCC(CC)CN1CCC[C@@H](n2c(=O)[nH]c3cc(-c4cc(OC)c5ncnn5c4)c(C(C)C)cc32)C1 [Example 148, (R)-1-(1-(2-ethylbutyl)piperidin-3-yl)-6-isopropyl-5-(8-methoxy-[1,2,4]triazolo[1,5-a]pyridin-6-yl)-1,3-dihydro-2H-benzo[d]imidazol-2-one]	0.49	9.61
Cc1c(-c2cc3[nH]c(=O)n([C@@H]4CCCN(CC5CCOCC5)C4)c3cc2C(C)C)cn2ncnc2c1C [Example 149, (R)-5-(7,8-dimethyl-[1,2,4]triazolo[1,5-a]pyridin-6-yl)-6-isopropyl-1-(1-((tetrahydro-2H-pyran-4-yl)methyl)piperidin-3-yl)-1,3-dihydro-2H-benzo[d]imidazol-2-one]	3.97	15.7
CCCN1CCC[C@@H](n2c(=O)[nH]c3cc(-c4cn5ncnc5c(C)c4C)c(C(C)C)cc32)C1 [Example 150, (R)-5-(7,8-dimethyl-[1,2,4]triazolo[1,5-a]pyridin-6-yl)-6-isopropyl-1-(1-propylpiperidin-3-yl)-1,3-dihydro-2H-benzo[d]imidazol-2-one]	5.52	11.9
CCC(CC)CN1CCC[C@@H](n2c(=O)[nH]c3cc(-c4cn5ncnc5c(C)c4C)c(C(C)C)cc32)C1 [Example 151, (R)-5-(7,8-dimethyl-[1,2,4]triazolo[1,5-a]pyridin-6-yl)-1-(1-(2-ethylbutyl)piperidin-3-yl)-6-isopropyl-1,3-dihydro-2H-benzo[d]imidazol-2-one]	11	17.7
COc1cc(-c2cc3[nH]c(=O)n([C@@H]4CCCN(CC(C)(C)C)C4)c3cc2C(C)C)cn2ncnc12 [Example 153, (R)-6-isopropyl-5-(8-methoxy-[1,2,4]triazolo[1,5-a]pyridin-6-yl)-1-(1-neopentylpiperidin-3-yl)-1,3-dihydro-2H-benzo[d]imidazol-2-one]	0.58	13.1
COc1cc(-c2cc3[nH]c(=O)n(C4CCN(C)CC4)c3cc2C(C)C)cn2ncnc12 [Example 154, 6-isopropyl-5-(8-methoxy-[1,2,4]triazolo[1,5-a]pyridin-6-yl)-1-(1-methylpiperidin-4-yl)-1,3-dihydro-2H-benzo[d]imidazol-2-one]	2.12	23.5
CCCN1CCC(n2c(=O)[nH]c3cc(-c4cc(OC)c5ncnn5c4)c(C(C)C)cc32)CC1 [Example 155, 6-isopropyl-5-(8-methoxy-[1,2,4]triazolo[1,5-a]pyridin-6-yl)-1-(1-propylpiperidin-4-yl)-1,3-dihydro-2H-benzo[d]imidazol-2-one]	6.33	11.9
COc1cc(-c2cc3[nH]c(=O)n(C4CCN(C5CCC5)CC4)c3cc2C(C)C)cn2ncnc12 [Example 156, 1-(1-cyclobutylpiperidin-4-yl)-6-isopropyl-5-(8-methoxy-[1,2,4]triazolo[1,5-a]pyridin-6-yl)-1,3-dihydro-2H-benzo[d]imidazol-2-one]	17.9	23.8
COc1cc(-c2cc3[nH]c(=O)n(C4CCN(C5COC5)CC4)c3cc2C(C)C)cn2ncnc12 [Example 157, 6-isopropyl-5-(8-methoxy-[1,2,4]triazolo[1,5-a]pyridin-6-yl)-1-(1-(oxetan-3-yl)piperidin-4-yl)-1,3-dihydro-2H-benzo[d]imidazol-2-one]	76.8	> 50
COc1cc(-c2cc3[nH]c(=O)n(C4CCN(C5CCOCC5)CC4)c3cc2C(C)C)cn2ncnc12 [Example 158, 6-isopropyl-5-(8-methoxy-[1,2,4]triazolo[1,5-a]pyridin-6-yl)-1-(1-(tetrahydro-2H-pyran-4-yl)piperidin-4-yl)-1,3-dihydro-2H-benzo[d]imidazol-2-one]	11.2	21.4
COc1cc(-c2cc3[nH]c(=O)n(C4CCN(CC5CCOCC5)CC4)c3cc2C(C)C)cn2ncnc12 [Example 159, 6-isopropyl-5-(8-methoxy-[1,2,4]triazolo[1,5-a]pyridin-6-yl)-1-(1-((tetrahydro-2H-pyran-4-yl)methyl)piperidin-4-yl)-1,3-dihydro-2H-benzo[d]imidazol-2-one]	7.23	7.25
COc1cc(-c2cc3[nH]c(=O)n(C4CCN(CC5CCOC5)CC4)c3cc2C(C)C)cn2ncnc12 (stereo not shown) [Example 160, 6-isopropyl-5-(8-methoxy-[1,2,4]triazolo[1,5-a]pyridin-6-yl)-1-(1-((tetrahydrofuran-3-yl)methyl)piperidin-4-yl)-1,3-dihydro-2H-benzo[d]imidazol-2-one]	8.66	14.3
COc1cc(-c2cc3[nH]c(=O)n(C4CCN(CC5CC5)CC4)c3cc2C(C)C)cn2ncnc12 [Example 161, 1-(1-(cyclopropylmethyl)piperidin-4-yl)-6-isopropyl-5-(8-methoxy-[1,2,4]triazolo[1,5-a]pyridin-6-yl)-1,3-dihydro-2H-benzo[d]imidazol-2-one]	7.28	11.3
COc1cc(-c2cc3[nH]c(=O)n(C4CCN(C5CCOC5)CC4)c3cc2C(C)C)cn2ncnc12 (stereo not shown) [Example 162, 6-isopropyl-5-(8-methoxy-[1,2,4]triazolo[1,5-a]pyridin-6-yl)-1-(1-(tetrahydrofuran-3-yl)piperidin-4-yl)-1,3-dihydro-2H-benzo[d]imidazol-2-one]	73	> 50
COc1cc(-c2cc3[nH]c(=O)n(C4CCN(C(C)C)CC4)c3cc2C(C)C)cn2ncnc12 [Example 163, 6-isopropyl-1-(1-isopropylpiperidin-4-yl)-5-(8-methoxy-[1,2,4]triazolo[1,5-a]pyridin-6-yl)-1,3-dihydro-2H-benzo[d]imidazol-2-one]	7.49	15.3

Reference: patent publication US12187723B2 (BRISTOL-MYERS SQUIBB COMPANY, priority 2019, dated 2025)
